Laboratory results reported in US12054466B2, “Compounds for the treatment of clostridium difficile infection” (University of Notre Dame du Lac, priority 2016, dated 2024).
Values after ≈ are worked out from the molar mass of the structure shown. Where two headings read alike, the source gives them in different places.

Key:
Format in all cases: cell-based
Eubacterium sp. HM-178 = test: MIC against common gut bacteria; conditions: SP.HM178
C. difficile BAA-1804 = test: MIC, broth microdilution; conditions: Clostridioides difficile, BAA1804, C. difficile BAA-1804
C. difficile NR49294 = test: MIC, broth microdilution; conditions: Clostridioides difficile, C. difficile NR49294 (NAP4, ribotype 014)
C. difficile BAA-1812 = test: MIC, broth microdilution; conditions: Clostridioides difficile, BAA1812, C. difficile BAA-1812
C. difficile NR49305 = test: MIC, broth microdilution; conditions: Clostridioides difficile, C. difficile NR49305 (NAP6, ribotype 002)
[1] = test system: Lactobacillus gasseri HM-644; test: MIC against common gut bacteria; conditions: for MIC: HM644, Lactobacillus gasseri HM-644, read-out: MIC
C. difficile NR49302 = test: MIC, broth microdilution; conditions: Clostridioides difficile, C. difficile NR49302 (NAP4, ribotype 020)
Bacteroides caccae = test: MIC against common gut bacteria; conditions: read-out: MIC
Bacteroides eggerthii = test: MIC against common gut bacteria; conditions: read-out: MIC
Bacteroides ovatus = test: MIC against common gut bacteria; conditions: read-out: MIC
Bacteroides fragilis = test: MIC against common gut bacteria; conditions: read-out: MIC
C. difficile BAA-1803 = test: MIC, broth microdilution; conditions: Clostridioides difficile, BAA1803, C. difficile BAA-1803 (NAP1, ribotype 027)
C. difficile ATCC43598 = test: MIC, broth microdilution; conditions: Clostridioides difficile, C. difficile ATCC43598
Veillonella sp. HM-49 = test: MIC against common gut bacteria; conditions: for MIC: SP.HM49, Veillonella sp. HM-49, read-out: MIC
[2] = test system: Fusobacterium nucleatum HM-992; test: MIC against common gut bacteria; conditions: HM992; Fusobacterium nucleatum HM-992; read-out: MIC
C. difficile BAA-1870 = test: MIC, broth microdilution; conditions: Clostridioides difficile, BAA1870, C. difficile BAA-1870 (NAP1, ribotype 27)
[3] = test system: Corynebacterium sp. HM-784; test: MIC against common gut bacteria; conditions: SP.HM784; Corynebacterium sp. HM-784; incubated aerobically; read-out: MIC
Method: Minimally-inhibitory concentrations. MICs for C. difficile strains and the common gut bacteria were determined using broth microdilution techniques as reported earlier using brucella broth supplemented with hemin and vitamin K or supplemented BHIS broth (Babakhani et al., J Antimicrob Chemother 2013, 68(3), 515). Lactobacillus MRS broth was used for lactobacillus strains. […] All incubations unless specified otherwise were carried out at 24 or 48 h at 37° C. in an anaerobic chamber (Whitley DG250 workstation, Microbiology International, Frederick, MD). Corynebacterium and lactobacillus species were incubated aerobically.

[4] = test system: Bifidobacterium longum HM-846; test: MIC against common gut bacteria; conditions: HM846; Bifidobacterium longum HM-846; read-out: MIC
C. difficile BAA-1801 = test: MIC, broth microdilution; conditions: Clostridioides difficile, BAA1801, C. difficile BAA-1801 (nontoxigenic)
[5] = test system: Lactobacillus reuteri HM-102; test: MIC against common gut bacteria; conditions: for MIC: Limosilactobacillus reuteri, HM102, Lactobacillus reuteri HM-102, read-out: MIC
C. difficile NR49310 = test: MIC, broth microdilution; conditions: Clostridioides difficile, C. difficile NR49310 (NAP7, ribotype 078)
C. difficile BAA-1814 = test: MIC, broth microdilution; conditions: Clostridioides difficile, BAA1814, C. difficile BAA-1814
Bacteroides vulgatus = test: MIC against common gut bacteria; conditions: Phocaeicola vulgatus; Bacteroides vulgatus; read-out: MIC
C. difficile NR49318 = test: MIC, broth microdilution; conditions: Clostridioides difficile, C. difficile NR49318 (NAP11, ribotype 106)
[6] = test system: Bacteroides fragilis HM-709; test: MIC against common gut bacteria; conditions: HM709; Bacteroides fragilis HM-709; read-out: MIC
C. difficile ATCC43255 = test: MIC, broth microdilution; conditions: Clostridioides difficile, C. difficile ATCC43255
C. difficile NR49292 = test: MIC, broth microdilution; conditions: Clostridioides difficile, C. difficile NR49292 (NAP2, ribotype 001_072)

CCc1c(Cl)c(O)c(Cl)c(O)c1C(=O)O[C@H]1[C@H](O)[C@H](OC)[C@H](OC/C2=C\C=C\C[C@H](O)/C(C)=C/[C@H](CC)[C@@H](O[C@@H]3OC(C)(C)[C@@H](OC(=O)C(C)C)[C@H](O)[C@@H]3O)/C(C)=C/C(C)=C/C[C@@H]([C@@H](C)O)OC2=O)O[C@@H]1C [fidaxomicin]
MIC (Eubacterium sp. HM-178): 16 µg/mL (≈ 15.1 µM) | MIC (C. difficile BAA-1804; 24 h, read-out: MIC at 24 h): < 0.25 µg/mL | MIC (C. difficile BAA-1804; 48 h, read-out: MIC at 48 h): < 0.25 µg/mL | MIC (C. difficile NR49294; 24 h, read-out: MIC at 24 h): ≤ 0.01 µg/mL | MIC (C. difficile NR49294; 48 h, read-out: MIC at 48 h): 0.01 µg/mL (≈ 0.00945 µM) | MIC (C. difficile BAA-1812; 24 h, read-out: MIC at 24 h): 0.015 µg/mL (≈ 0.0142 µM) | MIC (C. difficile BAA-1812; 48 h, read-out: MIC at 48 h): 0.125 µg/mL (≈ 0.118 µM) | MIC (C. difficile NR49305; 24 h, read-out: MIC at 24 h): 0.01 µg/mL (≈ 0.00945 µM) | MIC (C. difficile NR49305; 48 h, read-out: MIC at 48 h): 0.01 µg/mL (≈ 0.00945 µM) | MIC [1]: 2 µg/mL (≈ 1.89 µM) | MIC (C. difficile NR49302; 24 h, read-out: MIC at 24 h): 0.03 µg/mL (≈ 0.0284 µM) | MIC (C. difficile NR49302; 48 h, read-out: MIC at 48 h): 0.03 µg/mL (≈ 0.0284 µM) | MIC (Bacteroides caccae): > 32 µg/mL | MIC (Bacteroides eggerthii): > 32 µg/mL | MIC (Bacteroides ovatus): > 32 µg/mL | MIC (Bacteroides fragilis): > 32 µg/mL | MIC (C. difficile BAA-1803; 24 h, read-out: MIC at 24 h): 0.5 µg/mL (≈ 0.473 µM) | MIC (C. difficile BAA-1803; 48 h, read-out: MIC at 48 h): 1 µg/mL (≈ 0.945 µM) | MIC (C. difficile ATCC43598; 24 h, read-out: MIC at 24 h): 0.01 µg/mL (≈ 0.00945 µM) | MIC (C. difficile ATCC43598; 48 h, read-out: MIC at 48 h): 0.01 µg/mL (≈ 0.00945 µM) | MIC (Veillonella sp. HM-49): 8 µg/mL (≈ 7.56 µM) | MIC [2]: < 0.06 µg/mL | MIC (C. difficile BAA-1870; 24 h, read-out: MIC at 24 h): < 0.25 µg/mL | MIC (C. difficile BAA-1870; 48 h, read-out: MIC at 48 h): 0.25 µg/mL (≈ 0.236 µM) | MIC [3]: < 0.06 µg/mL | MIC [4]: < 0.01 µg/mL | MIC (C. difficile BAA-1801; 24 h, read-out: MIC at 24 h): 0.03 µg/mL (≈ 0.0284 µM) | MIC (C. difficile BAA-1801; 48 h, read-out: MIC at 48 h): 0.125 µg/mL (≈ 0.118 µM) | MIC [5]: > 32 µg/mL | MIC (C. difficile NR49310; 24 h, read-out: MIC at 24 h): ≤ 0.01 µg/mL | MIC (C. difficile NR49310; 48 h, read-out: MIC at 48 h): ≤ 0.01 µg/mL | MIC (C. difficile BAA-1814; 24 h, read-out: MIC at 24 h): ≤ 0.01 µg/mL | MIC (C. difficile BAA-1814; 48 h, read-out: MIC at 48 h): 0.03 µg/mL (≈ 0.0284 µM) | MIC (Bacteroides vulgatus): > 32 µg/mL | MIC (C. difficile NR49318; 24 h, read-out: MIC at 24 h): 0.25 µg/mL (≈ 0.236 µM) | MIC (C. difficile NR49318; 48 h, read-out: MIC at 48 h): 0.125 µg/mL (≈ 0.118 µM) | MIC [6]: > 32 µg/mL | MIC (C. difficile ATCC43255; 24 h, read-out: MIC at 24 h): 0.01 µg/mL (≈ 0.00945 µM) | MIC (C. difficile ATCC43255; 48 h, read-out: MIC at 48 h): 0.01 µg/mL (≈ 0.00945 µM) | MIC (C. difficile NR49292; 24 h, read-out: MIC at 24 h): 0.25 µg/mL (≈ 0.236 µM) | MIC (C. difficile NR49292; 48 h, read-out: MIC at 48 h): 0.5 µg/mL (≈ 0.473 µM)

Oc1ccc(-c2nc(-c3ccc(OC4CCCC4)cc3)no2)cc1 [Compound 2]
MIC (Eubacterium sp. HM-178): 4 µg/mL (≈ 12.4 µM) | MIC (C. difficile BAA-1804; 24 h, read-out: MIC at 24 h): 2 µg/mL (≈ 6.2 µM) | MIC (C. difficile BAA-1804; 48 h, read-out: MIC at 48 h): 2 µg/mL (≈ 6.2 µM) | MIC (C. difficile NR49294; 24 h, read-out: MIC at 24 h): 1 µg/mL (≈ 3.1 µM) | MIC (C. difficile NR49294; 48 h, read-out: MIC at 48 h): 2 µg/mL (≈ 6.2 µM) | MIC (C. difficile BAA-1812; 24 h, read-out: MIC at 24 h): 2 µg/mL (≈ 6.2 µM) | MIC (C. difficile BAA-1812; 48 h, read-out: MIC at 48 h): 2 µg/mL (≈ 6.2 µM) | MIC (C. difficile NR49305; 24 h, read-out: MIC at 24 h): 2 µg/mL (≈ 6.2 µM) | MIC (C. difficile NR49305; 48 h, read-out: MIC at 48 h): 2 µg/mL (≈ 6.2 µM) | MIC [1]: > 128 µg/mL | Activity against Lactobacillus gasseri ([1]; in words): not active | MIC (C. difficile NR49302; 24 h, read-out: MIC at 24 h): 2 µg/mL (≈ 6.2 µM) | MIC (C. difficile NR49302; 48 h, read-out: MIC at 48 h): 2 µg/mL (≈ 6.2 µM) | MIC (Bacteroides caccae): 2 µg/mL (≈ 6.2 µM) | MIC (Bacteroides eggerthii): 1 µg/mL (≈ 3.1 µM) | MIC (Bacteroides ovatus): 2 µg/mL (≈ 6.2 µM) | MIC (Bacteroides fragilis): 2 µg/mL (≈ 6.2 µM) | MIC (C. difficile BAA-1803; 24 h, read-out: MIC at 24 h): 1 µg/mL (≈ 3.1 µM) | MIC (C. difficile BAA-1803; 48 h, read-out: MIC at 48 h): 2 µg/mL (≈ 6.2 µM) | MIC (C. difficile ATCC43598; 24 h, read-out: MIC at 24 h): 1 µg/mL (≈ 3.1 µM) | MIC (C. difficile ATCC43598; 48 h, read-out: MIC at 48 h): 2 µg/mL (≈ 6.2 µM) | MIC (Veillonella sp. HM-49): > 128 µg/mL | Activity against Veillonella sp. (Veillonella sp. HM-49; in words): not active | MIC [2]: 2 µg/mL (≈ 6.2 µM) | MIC (C. difficile BAA-1870; 24 h, read-out: MIC at 24 h): 2 µg/mL (≈ 6.2 µM) | MIC (C. difficile BAA-1870; 48 h, read-out: MIC at 48 h): 2 µg/mL (≈ 6.2 µM) | MIC [3]: 0.5 µg/mL (≈ 1.55 µM) | MIC [4]: 1 µg/mL (≈ 3.1 µM) | MIC (C. difficile BAA-1801; 24 h, read-out: MIC at 24 h): 2 µg/mL (≈ 6.2 µM) | MIC (C. difficile BAA-1801; 48 h, read-out: MIC at 48 h): 2 µg/mL (≈ 6.2 µM) | MIC [5]: > 128 µg/mL | Activity against Lactobacillus reuteri ([5]; in words): not active | MIC (C. difficile NR49310; 24 h, read-out: MIC at 24 h): 2 µg/mL (≈ 6.2 µM) | MIC (C. difficile NR49310; 48 h, read-out: MIC at 48 h): 4 µg/mL (≈ 12.4 µM) | MIC (C. difficile BAA-1814; 24 h, read-out: MIC at 24 h): 2 µg/mL (≈ 6.2 µM) | MIC (C. difficile BAA-1814; 48 h, read-out: MIC at 48 h): 2 µg/mL (≈ 6.2 µM) | MIC (Bacteroides vulgatus): 2 µg/mL (≈ 6.2 µM) | MIC (C. difficile NR49318; 24 h, read-out: MIC at 24 h): 2 µg/mL (≈ 6.2 µM) | MIC (C. difficile NR49318; 48 h, read-out: MIC at 48 h): 4 µg/mL (≈ 12.4 µM) | MIC [6]: 1 µg/mL (≈ 3.1 µM) | MIC (C. difficile ATCC43255; 24 h, read-out: MIC at 24 h): 2 µg/mL (≈ 6.2 µM) | MIC (C. difficile ATCC43255; 48 h, read-out: MIC at 48 h): 2 µg/mL (≈ 6.2 µM) | MIC (C. difficile NR49292; 24 h, read-out: MIC at 24 h): 1 µg/mL (≈ 3.1 µM) | MIC (C. difficile NR49292; 48 h, read-out: MIC at 48 h): 2 µg/mL (≈ 6.2 µM)
